The subject of this test is Plasmodium berghei. In words: Luciferase/luciferin-expressing antifolate-resistant parasites were used to infect a culture of HepG2 cells that were pre-incubated with compounds. Infected hepatocytes emit light due to the luciferase reaction. Assay results are presented as the percent inhibition of light emission compared to control. […]. The conditions noted are these: sporozoite; for IC90: read-out: LUCIFERASE INFECTION ASSAY - IC90. In kind it is functional.

The mark [1] stands for this setting: read-out: LUCIFERASE INFECTION ASSAY - IC50.

What is called IC50 is the midpoint of a concentration-inhibition curve. The term IC90 denotes the concentration needed for an effect of 90%.

In the case of `COc1ccc(OC)c(CCNc2nc3cnc(-c4ccc(Cl)cc4)cc3n2C)c1`, the IC90 came out at 3.74 µM. Besides, the IC50 (HEPG2TOX_HILL_SLOPE 1.93, HEPG2TOX_R_SQUARED 0.878, PBLUC_HILL_SLOPE 2.27, PBLUC_R_SQUARED 0.668, read-out: LUCIFERASE INFECTION ASSAY - IC50) was found to be 1.42 µM.

As to `N#CCCN(CCC#N)C(=O)CSc1nnc(CCC(N)=O)n1C1CC1`, the concentration for an effect of 90% (IC90) is greater than 10 µM. In addition, the half-maximal inhibitory concentration (IC50) under setting [1] is greater than 10 µM.

As for `c1ccc(-c2cc3c(NCCCN4CCN(c5ncccn5)CC4)ncnc3s2)cc1`, the concentration for an effect of 90% (IC90) is 4.71 µM. The 50% inhibitory concentration (IC50) (HEPG2TOX_HILL_SLOPE 0.225, HEPG2TOX_R_SQUARED 0.56, PBLUC_HILL_SLOPE 1.89, PBLUC_R_SQUARED 0.636, read-out: LUCIFERASE INFECTION ASSAY - IC50) was determined as 1.47 µM.

Take `CCOC(=O)c1c(/C=C/C(=O)Nc2nc(C)cs2)c(C)n(CC)c1C`: the concentration for an effect of 90% (IC90) was greater than 10 µM. For the setting “PBLUC_HILL_SLOPE 0.644, PBLUC_R_SQUARED 0.0145, read-out: LUCIFERASE INFECTION ASSAY - IC50”, the IC50 was greater than 10 µM.

On to `C/C(=N\NC(=O)Nc1ccc(Cl)cc1)c1ccc2c(c1)OCCO2`, for which the IC90 is 9.81 µM. Also, the IC50 (HEPG2TOX_HILL_SLOPE 11.1, 2.08, HEPG2TOX_R_SQUARED 0.732, 0.913, PBLUC_HILL_SLOPE 3.29, PBLUC_R_SQUARED 0.645, read-out: LUCIFERASE INFECTION ASSAY - IC50) was 5.03 µM.

On to `O=C(Cn1ncc(Cl)c(Cl)c1=O)NCCC(c1ccccc1)c1ccccc1`, for which the IC90 was determined as 7.67 µM. Also, under setting [1], the 50% inhibitory concentration (IC50) came to 5.37 µM.

On to `CSc1sc(C#N)c2c1/C(=N/OC(=O)c1ccc(Cl)cc1)CCC2`, for which the concentration for an effect of 90% (IC90) was greater than 8.76 µM. Moreover, the IC50 (FFLUC_HILL_SLOPE 4.66, FFLUC_R_SQUARED 0.795, read-out: LUCIFERASE INFECTION ASSAY - IC50) is greater than 8.76 µM.

In the case of `Cc1ccc(C2=NN=C/C2=N\Nc2cc(Cl)cc(Cl)c2)cc1`, the IC90 worked out at 3.57 µM. For the same compound, where the note is “FFLUC_HILL_SLOPE 4.14, FFLUC_R_SQUARED 0.778, HEPG2TOX_HILL_SLOPE 3.13, HEPG2TOX_R_SQUARED 0.962, PBLUC_HILL_SLOPE 34.3, PBLUC_R_SQUARED 0.21, read-out: LUCIFERASE INFECTION ASSAY - IC50”, the IC50 came to 3.34 µM.

Turning to `COc1ccc(C(=O)CSC2=NCCCC2)cc1`, the IC90 was greater than 9.59 µM. Further, the half-inhibitory concentration (IC50) under setting [1] is greater than 9.59 µM.

For `COc1ccc(-c2cnc3ccc(NCc4cccc(Cl)c4)nn23)cc1`, the IC90 was 8.06 µM. Moreover, the IC50 (HEPG2TOX_HILL_SLOPE 4.15, HEPG2TOX_R_SQUARED 0.863, PBLUC_HILL_SLOPE 14.2, PBLUC_R_SQUARED 0.0441, read-out: LUCIFERASE INFECTION ASSAY - IC50) was 6.9 µM.

Consider `CCC(C)c1ccc(S(=O)(=O)N(Cc2ccc(C(=O)NC3CC3)cc2)C2CC2)cc1` (configuration not stated), for which the concentration for an effect of 90% (IC90) was determined as 2.3 µM. The IC50 (PBLUC_HILL_SLOPE 1.25, PBLUC_R_SQUARED 0.781, read-out: LUCIFERASE INFECTION ASSAY - IC50) turned out to be 0.394 µM.

As for `COC(=O)c1scc(S(=O)(=O)Cc2ccco2)c1N/N=C(\C#N)S(=O)(=O)C(C)C`, the IC90 was greater than 7.18 µM. The IC50 under setting [1] was greater than 7.18 µM.

For `N#CC(C#N)=C1C=C(c2ccc(O)cc2)Oc2ccccc21`, the IC90 is greater than 10 µM. Besides, the concentration for half-maximal inhibition (IC50) (FFLUC_HILL_SLOPE 1.23, FFLUC_R_SQUARED 0.408, read-out: LUCIFERASE INFECTION ASSAY - IC50) was greater than 10 µM.

Consider `Nc1ccc(-c2cn3c(-c4ccc(CO)cc4)cnc3cn2)cn1`, for which the concentration for an effect of 90% (IC90) is 9.13 µM. Also, the half-maximal inhibitory concentration (IC50) under setting [1] came out at 5.8 µM.

With `O=C(Nc1cccc(C(F)(F)F)c1)Nc1ccc2nc(-c3ccco3)nn2c1`, the IC90 is greater than 10 µM. The IC50 (FFLUC_HILL_SLOPE 40.8, FFLUC_R_SQUARED 0.195, PBLUC_HILL_SLOPE 31.8, PBLUC_R_SQUARED 0.106, read-out: LUCIFERASE INFECTION ASSAY - IC50) stood at 9.83 µM.

On to `CN1C(=O)/C(=C\c2ccccc2[N+](=O)[O-])c2ccccc21`, for which the 90% effect concentration (IC90) was greater than 10 µM. Besides, under setting [1], the concentration for half-maximal inhibition (IC50) stood at 9.31 µM.

Take `Cn1c(N)c(C(=O)COC(=O)C2(c3ccc(Cl)cc3)CCCC2)c(=O)n(C)c1=O`: the IC90 came out at 6.91 µM. The IC50 (PBLUC_HILL_SLOPE 2.17, PBLUC_R_SQUARED 0.685, read-out: LUCIFERASE INFECTION ASSAY - IC50) is 2.5 µM.

With `CSc1sc(Cl)c2c1/C(=N\O)CC(C)(C)C2`, the IC90 was greater than 12 µM. The concentration for half-maximal inhibition (IC50) under setting [1] was greater than 12 µM.

Take `O=C(Nc1nc2ccccn2c1C(=O)NC1CCCCC1)c1ccccc1`: the IC90 stood at 3.28 µM. Further, the IC50 (FFLUC_HILL_SLOPE 12.3, FFLUC_R_SQUARED 0.522, HEPG2TOX_HILL_SLOPE 1.9, HEPG2TOX_R_SQUARED 0.962, PBLUC_HILL_SLOPE 15.5, PBLUC_R_SQUARED 0.368, read-out: LUCIFERASE INFECTION ASSAY - IC50) was 2.84 µM.

Take `CNc1cc(C(C)C)nc2c(-c3ccccc3)cnn12`: the IC90 was greater than 12.4 µM. The IC50 (PBLUC_HILL_SLOPE 1.1, PBLUC_R_SQUARED 0.428, read-out: LUCIFERASE INFECTION ASSAY - IC50) came to 9.54 µM.

As for `CSc1nc(Sc2nnc(-c3ccc(C(C)(C)C)cc3)[nH]2)cc(Sc2nnc(-c3ccc(C(C)(C)C)cc3)[nH]2)n1`, the IC90 is greater than 5.6 µM. For the same compound, the IC50 (PBLUC_HILL_SLOPE 11.3, PBLUC_R_SQUARED 0.117, read-out: LUCIFERASE INFECTION ASSAY - IC50) is 5.38 µM.

As for `O=C(c1ccc([N+](=O)[O-])o1)N1CCc2sccc2C1c1ccccc1` (configuration not stated), the concentration for an effect of 90% (IC90) is greater than 10 µM. In addition, the IC50 (HEPG2TOX_HILL_SLOPE 0.0396, HEPG2TOX_R_SQUARED 0.037, PBLUC_HILL_SLOPE 3.01, PBLUC_R_SQUARED 0.32, read-out: LUCIFERASE INFECTION ASSAY - IC50) is 6.65 µM.

Turning to `Cc1c(C(=O)N2CCCCC2)sc2nc(-c3ccc(Cl)cc3)nn12`, the IC90 was 8.36 µM. Further, under “FFLUC_HILL_SLOPE 28.1, FFLUC_R_SQUARED 0.294, PBLUC_HILL_SLOPE 1.44, PBLUC_R_SQUARED 0.531, read-out: LUCIFERASE INFECTION ASSAY - IC50”, the IC50 was determined as 1.82 µM.

With `Cc1ccc(Sc2ncccc2C(=O)Nc2nc3c(s2)CCCC3)cc1`, the IC90 turned out to be 3.95 µM. Besides, the IC50 under setting [1] was determined as 3.38 µM.

Take `O=C(Nc1ccccc1N1CCOCC1)c1ccc2noc(-c3ccccc3)c2c1`: the concentration for an effect of 90% (IC90) was greater than 10 µM. Further, the IC50 (FFLUC_HILL_SLOPE 1.87, FFLUC_R_SQUARED 0.584, PBLUC_HILL_SLOPE 3.85, PBLUC_R_SQUARED 0.483, read-out: LUCIFERASE INFECTION ASSAY - IC50) was found to be 7.96 µM.

Consider `CC(C)c1ccc(/C=C/C2=NNC(=O)CC2)cc1`, for which the IC90 was greater than 13.6 µM. In addition, the IC50 (HEPG2TOX_HILL_SLOPE 0.687, HEPG2TOX_R_SQUARED 0.88, PBLUC_HILL_SLOPE 0.307, PBLUC_R_SQUARED 0.14, read-out: LUCIFERASE INFECTION ASSAY - IC50) is greater than 13.6 µM.

Take `O=C(c1cccc(F)c1)c1cnc(Nc2cccc(Br)c2)[nH]1`: the IC90 is greater than 9.16 µM. Also, for the setting “PBLUC_HILL_SLOPE 15, PBLUC_R_SQUARED 0.325, read-out: LUCIFERASE INFECTION ASSAY - IC50”, the half-maximal inhibitory concentration (IC50) came out at 8.58 µM.

In the case of `CC(C)(C)c1ccc(CN2C(=O)CS/C2=C\C(=O)c2ccc(C(C)(C)C)cc2)cc1`, the concentration for an effect of 90% (IC90) was greater than 10 µM. Also, under “FFLUC_HILL_SLOPE 1.26, FFLUC_R_SQUARED 0.691, PBLUC_HILL_SLOPE 1.17, PBLUC_R_SQUARED 0.615, read-out: LUCIFERASE INFECTION ASSAY - IC50”, the 50% inhibitory concentration (IC50) was determined as 1.59 µM.

On to `O=C(Nc1ccccc1)N1CCc2sccc2C1c1ccc(C(F)(F)F)cc1` (configuration not stated), for which the IC90 was determined as 5.93 µM. In addition, for the setting “PBLUC_HILL_SLOPE 6.19, PBLUC_R_SQUARED 0.577, read-out: LUCIFERASE INFECTION ASSAY - IC50”, the IC50 was 4.16 µM.

Regarding `Cc1ccnc(NC(c2cccc(C)n2)c2ccc3cccnc3c2O)c1` (configuration not stated), the 90% effect concentration (IC90) was greater than 9.26 µM. Further, under “FFLUC_HILL_SLOPE 20.2, FFLUC_R_SQUARED 0.523, HEPG2TOX_HILL_SLOPE 12.4, HEPG2TOX_R_SQUARED 0.193, PBLUC_HILL_SLOPE 13.3, PBLUC_R_SQUARED 0.0907, read-out: LUCIFERASE INFECTION ASSAY - IC50”, the half-inhibitory concentration (IC50) came to 7.89 µM.

Take `Cc1csc(C(C#N)C(=O)CSc2nnc(Nc3ccc(OC(F)(F)F)cc3)s2)n1` (configuration not stated): the IC90 is greater than 10 µM. The 50% inhibitory concentration (IC50) (PBLUC_HILL_SLOPE 2.13, PBLUC_R_SQUARED 0.0111, read-out: LUCIFERASE INFECTION ASSAY - IC50) is 7.36 µM.

`COc1ccc(-c2cnc3ccc(NCc4ccc(Cl)c(Cl)c4)nn23)cn1`: the concentration for an effect of 90% (IC90) is 4.73 µM. Besides, the IC50 under setting [1] stood at 4.63 µM.

Take `CC(C)(C)C(=O)Nc1ccc(-c2csc(-n3nccc3C(F)(F)F)n2)cc1`: the IC90 is greater than 10 µM. In addition, the IC50 (PBLUC_HILL_SLOPE 6.43, PBLUC_R_SQUARED 0.126, read-out: LUCIFERASE INFECTION ASSAY - IC50) stood at 8.51 µM.

Turning to `Cc1cc(Cl)c(C)c(S(=O)(=O)Nc2ccccc2N2CCN(C)CC2)c1Cl`, the 90% effect concentration (IC90) is greater than 10 µM. Besides, the 50% inhibitory concentration (IC50) (FFLUC_HILL_SLOPE 13.7, FFLUC_R_SQUARED 0.171, read-out: LUCIFERASE INFECTION ASSAY - IC50) is greater than 10 µM.

For the compound `Cc1ccc(NN2C(=O)C=C(c3ccccc3)C2=O)cc1`, the IC90 was greater than 11.9 µM. Further, the IC50 (HEPG2TOX_HILL_SLOPE 1.4, HEPG2TOX_R_SQUARED 0.882, PBLUC_HILL_SLOPE 17, PBLUC_R_SQUARED 0.623, read-out: LUCIFERASE INFECTION ASSAY - IC50) came out at 11.2 µM.

`CCOC(=O)c1cc(C#N)c(Sc2nnc(SC)s2)nc1C(F)(F)F`: the IC90 is greater than 8.12 µM. For the same compound, under “HEPG2TOX_HILL_SLOPE 16.4, HEPG2TOX_R_SQUARED 0.12, PBLUC_HILL_SLOPE 2.78, PBLUC_R_SQUARED 0.452, read-out: LUCIFERASE INFECTION ASSAY - IC50”, the concentration for half-maximal inhibition (IC50) came to 4.34 µM.

Source of the values: ChEMBL document CHEMBL4483862, “Open-source discovery of chemical leads for next-generation chemoprotective antimalarials” (2018).
